IC50 data for 19 molecules are collected here from patent publication US20230113037A1 (Bayer Aktiengesellschaft, priority 2019, published 2023).

Where two headings read alike, the source gives them in different places.

Assay [1] has as its target T1, AHR (Homo sapiens, UniProt P35869).
T1 construct: U87 MG glioblastoma cells (ATCC #HTB-14) endogenously expressing AHR; endogenous in cells; host or cells: U87 MG glioblastoma cells (ATCC #HTB-14)
T1 sequence (P35869 11-848): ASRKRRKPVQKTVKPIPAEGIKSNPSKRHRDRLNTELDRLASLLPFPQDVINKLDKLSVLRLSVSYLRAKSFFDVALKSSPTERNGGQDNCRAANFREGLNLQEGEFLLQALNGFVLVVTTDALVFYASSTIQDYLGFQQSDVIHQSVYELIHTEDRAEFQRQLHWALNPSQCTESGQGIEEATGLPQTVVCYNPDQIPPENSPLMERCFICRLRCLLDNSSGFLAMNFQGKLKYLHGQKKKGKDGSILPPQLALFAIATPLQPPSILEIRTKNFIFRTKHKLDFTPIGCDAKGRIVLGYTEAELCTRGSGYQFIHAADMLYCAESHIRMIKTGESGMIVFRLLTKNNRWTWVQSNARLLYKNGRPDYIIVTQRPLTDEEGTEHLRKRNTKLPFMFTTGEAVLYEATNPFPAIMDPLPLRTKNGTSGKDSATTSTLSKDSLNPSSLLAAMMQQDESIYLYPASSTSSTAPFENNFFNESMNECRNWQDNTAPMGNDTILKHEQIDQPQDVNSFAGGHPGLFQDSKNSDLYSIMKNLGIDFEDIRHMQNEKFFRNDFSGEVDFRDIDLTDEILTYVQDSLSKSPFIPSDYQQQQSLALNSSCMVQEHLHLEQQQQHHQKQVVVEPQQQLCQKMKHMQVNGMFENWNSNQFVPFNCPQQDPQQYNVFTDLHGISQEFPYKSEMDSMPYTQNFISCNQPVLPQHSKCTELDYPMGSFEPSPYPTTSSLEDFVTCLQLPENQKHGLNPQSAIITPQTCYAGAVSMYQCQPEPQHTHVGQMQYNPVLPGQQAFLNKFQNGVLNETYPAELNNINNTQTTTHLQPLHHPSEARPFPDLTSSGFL
The assay is described as follows: In vitro assay 1: antagonism in human cell line (AHR transactivation, firefly luciferase reporter, kynurenic acid prestimulated). It is filed as cell-based. As to conditions: AHR Antagonism Human IC50 [M]. How it is done:
Examples were tested in selected biological assays one or more times. When tested more than once, data are reported as either average values or as median values, wherein • the average value, also referred to as the arithmetic mean value, represents the sum of the values obtained divided by the number of times tested, and • the median value represents the middle number of the group of values when ranked in ascending or descending order. If the number of values in the data set is odd, the median is the middle value. If the number of values in the data set is even, the median is the arithmetic mean of the two middle values.
Transactivation assays were carried out in U87 MG glioblastoma cells (ATCC #HTB-14) endogenously expressing AHR. In addition the cells were stably transfected with an AHR inducible firefly luciferase reporter gene construct that carried AHR-binding sites (DRE) in its promoter and a renilla reporter gene construct with constitutively active promoter. Kynurenic acid is an endogenous AHR activating ligand and was used to prestimulate test cells prior to testing the antagonistic properties of compounds.
As positive inhibition control cells supplemented with 150 μM kynurenic acid were incubated in presence of 5 μM Staurosporin. Normalization was done by positive and negative controls.
Firefly luciferase and Renilla activity was determined by the DualGlo Luciferase Assay System (Promega, #2920). Renilla activity was used to assess toxic effects of compounds.
In general terms: In a reporter assay the amount or activity of a reporter protein is the signal.

Assay [2] concerns the target T2, AHR (Mus musculus, UniProt P30561).
T2 sequence (P30561 1-848 P471L/N533S/M589L): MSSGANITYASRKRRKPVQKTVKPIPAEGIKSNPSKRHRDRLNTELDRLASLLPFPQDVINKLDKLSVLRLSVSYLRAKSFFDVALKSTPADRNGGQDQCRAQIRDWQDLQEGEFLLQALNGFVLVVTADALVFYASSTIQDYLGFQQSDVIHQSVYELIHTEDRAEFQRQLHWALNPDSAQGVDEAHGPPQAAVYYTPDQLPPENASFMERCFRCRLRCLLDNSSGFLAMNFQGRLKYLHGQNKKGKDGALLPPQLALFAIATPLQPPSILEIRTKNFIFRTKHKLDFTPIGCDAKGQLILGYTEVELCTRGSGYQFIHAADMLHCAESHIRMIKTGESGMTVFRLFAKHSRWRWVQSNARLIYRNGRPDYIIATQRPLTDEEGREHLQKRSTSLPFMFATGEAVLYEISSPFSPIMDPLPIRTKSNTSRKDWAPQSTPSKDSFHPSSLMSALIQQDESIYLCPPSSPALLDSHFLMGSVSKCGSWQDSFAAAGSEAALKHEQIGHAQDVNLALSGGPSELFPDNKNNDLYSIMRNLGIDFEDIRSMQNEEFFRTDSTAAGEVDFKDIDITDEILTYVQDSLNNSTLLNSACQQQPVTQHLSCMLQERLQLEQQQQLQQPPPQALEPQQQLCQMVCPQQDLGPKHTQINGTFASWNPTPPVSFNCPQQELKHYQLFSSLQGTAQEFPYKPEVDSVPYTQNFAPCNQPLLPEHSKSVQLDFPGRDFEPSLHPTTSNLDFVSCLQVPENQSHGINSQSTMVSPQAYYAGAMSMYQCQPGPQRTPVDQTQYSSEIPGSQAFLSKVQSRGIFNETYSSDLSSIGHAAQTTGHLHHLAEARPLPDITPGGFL
The assay is described as follows: In vitro assay 3: antagonism in mouse cell line (AHR transactivation, firefly luciferase reporter, kynurenic acid prestimulated). It is filed as cell-based. The procedure, abridged:
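Luminescence from an AHR-dependent DRE-luciferase reporter, stably integrated in mouse cells, quantifies blockade of kynurenic acid-driven activation. Unstimulated cells mark maximal inhibition; normalization uses both control types, and multiply tested compounds carry mean or median values.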

Where [3] appears, read: Hepa 1c1c7 cells, 200 μM kynurenic acid, 20 hours, firefly luciferase reporter, read-out: AHR Antagonism Mouse IC50.
Setting [4] is: mouse Hepa 1c1c7 cells, 200 μM kynurenic acid, 20 hours, read-out: AHR Antagonism Mouse IC50.

Usually IC50 stands for the concentration that inhibits the measured activity by half. Consider `COc1ccc(-c2nc3c4cccc(Br)c4nc(N[C@H](C)C(=O)NCC(C)(C)N)n3n2)cc1` [Example 789, N-(2-amino-2-methylpropyl)-N^2-[7-bromo-2-(4-methoxyphenyl)[1,2,4]triazolo[1,5-c]quinazolin-5-yl]-D-alaninamide], for which the IC50 at AHR [1] (firefly luciferase reporter) came to 4.3e-08 M; on AHR [2] (setting [3]), 17.1 nM.

In the case of `O=C1NCCCC[C@H]1Nc1nc2ccccc2c2nc(-c3cncc(Cl)c3)nn12` [Example 480, (3R)-3-{[2-(5-chloropyridin-3-yl)[1,2,4]triazolo[1,5-c]quinazolin-5-yl]amino}azepan-2-one], the figures for the half-maximal inhibitory concentration (IC50) against AHR [1] and on AHR [2] (setting [4]) were 2.07e-08 M and 14.8 nM, respectively.

As to `COc1ccc(-c2nc3c4c(N5CCOCC5)cccc4nc(N[C@@H]4CCCCNC4=O)n3n2)cc1` [Example 655, (3R)-3-{[2-(4-methoxyphenyl)-10-(morpholin-4-yl)[1,2,4]triazolo[1,5-c]quinazolin-5-yl]amino}azepan-2-one], the IC50 on AHR [1] came out at 1.39e-07 M; at AHR [2] (setting [4]), 256 nM.

As to `CS(=O)(=O)c1ccc(-c2nc3c4cccc(Br)c4nc(N[C@H]4CCCCNC4=O)n3n2)cc1` [Example 680, (3S)-3-({7-bromo-2-[4-(methanesulfonyl)phenyl][1,2,4]triazolo[1,5-c]quinazolin-5-yl}amino)azepan-2-one], the IC50 is 3.93e-08 M on AHR [1] and 35.6 nM on AHR [2] (read-out: AHR Antagonism Mouse IC50, mouse Hepa 1c1c7 cells, 200 μM kynurenic acid, 20 hours).

For the molecule `O=C1NCC[C@H]1Nc1nc2c(Br)cccc2c2nc(-c3ccccc3OC(F)(F)F)nn12` [Example 219, (3R)-3-({7-bromo-2-[2-(trifluoromethoxy)phenyl][1,2,4]triazolo[1,5-c]quinazolin-5-yl}amino)pyrrolidin-2-one], the IC50 on AHR [1] is 8.15e-08 M; at AHR [2] (setting [4]), 7.14 nM.

With `Cn1cc(-c2nc3c4ccccc4nc(NC4CNCCNC4=O)n3n2)cn1` (racemic) [Example 22, 6-{[2-(1-methyl-1H-pyrazol-4-yl)[1,2,4]triazolo[1,5-c]quinazolin-5-yl]amino}-1,4-diazepan-5-one], the IC50 is 5.33e-06 M against AHR [1] and 2030 nM at AHR [2] (setting [4]).

As for `O=C1NCCCC[C@H]1Nc1nc2ccccc2c2nc(-c3ccsc3Cl)nn12` [Example 611, (3R)-3-{[2-(2-chlorothiophen-3-yl)[1,2,4]triazolo[1,5-c]quinazolin-5-yl]amino}azepan-2-one], the results for the IC50 at AHR [1] and on AHR [2] (setting [4]) were 4.36e-09 M and 3.16 nM, respectively.

Turning to `C[C@@H](Nc1nc2c(Br)cccc2c2nc(-c3cnn(C)c3)nn12)C(=O)NCCN1CCN(C(=O)OC(C)(C)C)CC1` [Example 891, tert-butyl 4-[2-({N-[7-bromo-2-(1-methyl-1H-pyrazol-4-yl)[1,2,4]triazolo[1,5-c]quinazolin-5-yl]-D-alanyl}amino)ethyl]piperazine-1-carboxylate], the IC50 on AHR [1] (firefly luciferase reporter) turned out to be 5.75e-08 M; on AHR [2] (setting [3]), 66.8 nM.

With `CS(=O)(=O)c1ccc(-c2nc3c4cccc(Br)c4nc(N[C@@H]4CNCCNC4=O)n3n2)cc1` [Example 715, (6R)-6-({7-bromo-2-[4-(methanesulfonyl)phenyl][1,2,4]triazolo[1,5-c]quinazolin-5-yl}amino)-1,4-diazepan-5-one], the IC50 at AHR [1] stood at 1.13e-08 M; at AHR [2] (setting [4]), 14.8 nM.

Regarding `COCc1cccc2c1nc(N[C@@H]1CCCCNC1=O)n1nc(-c3ccc(OC)cc3)nc21` [Example 1003, (3R)-3-{[7-(methoxymethyl)-2-(4-methoxyphenyl)[1,2,4]triazolo[1,5-c]quinazolin-5-yl]amino}azepan-2-one], the half-maximal inhibitory concentration (IC50) against AHR [1] (firefly luciferase reporter) came to 9.15e-10 M; at AHR [2] (setting [3]), 4.06 nM.

With `CCCCNC(=O)[C@@H](C)Nc1nc2c(C(F)(F)F)cccc2c2nc(-c3cnn(C)c3)nn12` [Example 751, N-butyl-N^2-[2-(1-methyl-1H-pyrazol-4-yl)-7-(trifluoromethyl)[1,2,4]triazolo[1,5-c]quinazolin-5-yl]-D-alaninamid], the values for the IC50 on AHR [1] and at AHR [2] (setting [4]) were 1.47e-08 M and 54.7 nM, respectively.

Consider `CN1CC[C@@H](Nc2nc3ccccc3c3nc(-c4ccccc4OC(F)(F)F)nn23)C1=O` [Example 460, (3R)-1-methyl-3-({2-[2-(trifluoromethoxy)phenyl][1,2,4]triazolo[1,5-c]quinazolin-5-yl}amino)pyrrolidin-2-one], for which the IC50 against AHR [1] is 7.67e-08 M.

Molecule `Cn1cc(-c2nc3c4cccc(C(C)(C)O)c4nc(N[C@@H]4CCCCNC4=O)n3n2)cn1` [Example 861, (3R)-3-{[7-(2-hydroxypropan-2-yl)-2-(1-methyl-1H-pyrazol-4-yl)[1,2,4]triazolo[1,5-c]quinazolin-5-yl]amino}azepan-2-one] came in with an IC50 at AHR [1] (firefly luciferase reporter) of 1.34e-07 M.

In turn, `Cc1ccc2c(c1)nc(N[C@@H]1CCCCNC1=O)n1nc(-c3cnn(C)c3)nc21` [Example 147, (3R)-3-{[8-methyl-2-(1-methyl-1H-pyrazol-4-yl)[1,2,4]triazolo[1,5-c]quinazolin-5-yl]amino}azepan-2-one] registered a half-inhibitory concentration (IC50) against AHR [1] of 7.53e-07 M.

As to `Nc1ccc(-c2nc3c4ccccc4nc(N[C@@H]4CCCCNC4=O)n3n2)cc1` [Example 620, (3R)-3-{[2-(4-aminophenyl)[1,2,4]triazolo[1,5-c]quinazolin-5-yl]amino}azepan-2-one], it took 8.44e-08 M to reach half-maximal inhibition against AHR [1] (IC50).

At AHR [1], `O=C1NCCCCCC1Nc1nc2ccccc2c2nc(-c3ccc(Cl)cc3OC(F)F)nn12` (stereo not drawn) [Example 529, 3-({2-[4-chloro-2-(difluoromethoxy)phenyl][1,2,4]triazolo[1,5-c]quinazolin-5-yl}amino)azocan-2-one] showed a half-maximal inhibitory concentration (IC50) of 2.8e-09 M.

`COc1ccc(-c2nc3c4c(C(C)C)cccc4nc(N[C@@H]4CCCCNC4=O)n3n2)cc1` [Example 726, (3R)-3-{[2-(4-methoxyphenyl)-10-(propan-2-yl)[1,2,4]triazolo[1,5-c]quinazolin-5-yl]amino}azepan-2-one] returned a half-inhibitory concentration (IC50) at AHR [1] of 1.09e-05 M.

Regarding `Cn1cc(-c2nc3c4ccc(C(F)(F)F)cc4nc(N[C@@H]4CCCCNC4=O)n3n2)cn1` [Example 227, (3R)-3-{[2-(1-methyl-1H-pyrazol-4-yl)-8-(trifluoromethyl)[1,2,4]triazolo[1,5-c]quinazolin-5-yl]amino}azepan-2-one], the midpoint of inhibition against AHR [1], the IC50, lay at 2.65e-06 M.

For the molecule `O=C1NCCCC[C@H]1Nc1nc2c(C(F)(F)F)cccc2c2nc(-c3nc(C4CC4)cs3)nn12` [Example 747, (3R)-3-{[2-(4-cyclopropyl-1,3-thiazol-2-yl)-7-(trifluoromethyl)[1,2,4]triazolo[1,5-c]quinazolin-5-yl]amino}azepan-2-one], the IC50 at AHR [1] came to 1.65e-09 M.
